Assay results published in patent publication US20190022152A1, “MICROBIOME RESPONSE TO AGENTS” (Yeda Research and Development Co., Ltd., priority 2014, published 2019).

Test system: germ-free Swiss-Webster mice
Experiment: Fecal or culture transplantation into germ-free mice followed by OGTT
Assay type: in vivo
From the text: C57Bl/6 WT adult male mice were randomly assigned (without blinding) to treatment groups and were given commercial artificial sweeteners (saccharin-, sucralose- or aspartame-based) or pure saccharin (Sigma Aldrich) in drinking water and fed a high-fat (HFD D12492, 60% Kcal from fat, Research Diets) or standard polysaccharide normal chow (NC) diet (Harlan-Teklad). Compared groups were always fed from the same batch of diet. For antibiotic treatment, mice were given a combination of ciprofloxacin (0.2 gl^−1) and metronidazole ([…]) or vancomycin (0.5 gl^−1) in their drinking water. All antibiotics were obtained from Sigma Aldrich. Adult male outbred Swiss-Webster mice (a widely used mouse strain in germ-free experiments) served as recipients for fecal transplants and were housed in sterile isolators (Park Biosciences). For fecal transplantation experiments, 200 mg of stool (from mouse pellets or human swabs) was resuspended in 5 ml of PBS under anaerobic conditions, vortexed for 3 minutes and allowed to settle by gravity for 2 minutes. Recipient mice were gavaged with 200 μl of the supernatant and maintained on standard NC diet and water throughout the experiment.
Mice were fasted for 6 hours during the light phase, with free access to water. In all groups of mice where the drinking regime was other than water, it was substituted for water for the period of the fasting and glucose or insulin tolerance test. Blood from the tail vein was used to measure glucose levels using a glucometer (Bayer) immediately before and 15, 30, 60, 90 and 120 minutes after oral feeding with 40 mg glucose (J.T. Baker) or intra-peritoneal injection with 0.1 Ukg^−1 Insulin (Biological Industries). Plasma fasting insulin levels were measured in sera collected immediately before the start of GTT using ELISA (Ultra Sensitive Mouse Insulin ELISA Kit, Crystal Chem).
pooled fecal matter from naïve adult WT C57Bl/6 male mice was resuspended in 5 ml PBS in an anaerobic chamber (Coy Laboratory Products, 75% N2, 20% CO2, 5% H2), vortexed for 3 minutes and allowed to settle by gravity for 2 minutes. […] were added to a tube containing Chopped Meat Carbohydrate Broth, PR II (BD) and […] of a 5 mgml-1 saccharin solution or an equal volume of PBS. Every 3 days, 500 ml of culture were diluted to fresh medium containing saccharin or PBS. After 9 days, cultures were used for inoculation of germ-free mice.

In the case of `O=C1NS(=O)(=O)c2ccccc21` [saccharin], the “glucose tolerance of germ-free recipients” value (D7 (post exposure) vs D1 stool from human NAS responders after 7 days commercial saccharin, P<0.004, P<0.02) is reported as “significant glucose intolerance”, the “glucose tolerance of germ-free recipients” value (D7 vs D1 stool from two human NAS non-responders) is reported as “normal glucose tolerance” and the “glucose tolerance of germ-free recipients” value (donors HFD-consuming mice drinking pure saccharin vs water, p<0.004) is reported as “replicated the glucose intolerance phenotype”. The “glucose tolerance of germ-free recipients” value (recipients of in vitro saccharin-treated (5 mgml^−1) fecal culture vs control culture, 6 days, p<0.002) was “significantly higher glucose intolerance”.
